Entries after “also recorded” stand apart in the source; their conditions may differ. Values belong to the molecule of their own block, whether it stands above or below them.
Tests used:
[1] = tested on: 1321N1 astrocytoma cells; assay: [Ca2+]i response before and after UV uncaging, fluo-3; assay type: cell-based; details: for [Ca2+]i response after uncaging of IP3-CPM: Ca2+ free medium
Protocol: (b) Same experiment as (a) except done in Ca^2+ free medium (DPBS, O Ca^2+, 0.5 mM EGTA). UV exposure of the cells treated with IP3 -CPM still gave the same response, showing that the [Ca^2+ ]i increase resulted from the release of Ca^2+ from internal stores. […] The cells were loaded with fluo-3/AM. During the experiment the cells were bathed in HBS buffered with 20 mM Hepes at pH 7.4 and supplemented with 2 g/L glucose.
The [Ca^2+ ]i was monitored using the calcium indicator fluo-3 rather than fura-2 to keep the excitation wavelength of the indicator (490 nm) far from the uncaging wavelength (360 nm) of DMNB group. […] Compared to the photolyzing set-up (direct illumination by a hand mercury lamp) used for the IP3 -binding assay, the optical throughput from the source lamp to the specimen is much higher in a microscope, so 10 seconds (as opposed to 2 hours in IP3 binding assay) of photolysis was sufficient to produce enough IP3 to elicit [Ca^2+ ]i increase. The same amount of UV alone had no effect at all on [Ca^2+ ]i in cells not treated with IP3 -CPM. After recovering from uncaging of IP3 -CPM, the cells responded to subsequent carbachol and thapsigargin stimulation normally.
This confirmed that the [Ca^2+ ]i increase due to uncaging of IP3 -CPM resulted from internal Ca^2+ release, which was consistent with the normal mechanism of IP3 action.

[2] = tested on: P388D1 macrophage-like cells; assay: as above; assay type: cell-based; details: PAF 100 nM, ionomycin 5 μM
Protocol: The cells were loaded with fluo-3/AM. During the experiment the cells were bathed in HBS buffered with 20 mM Hepes at pH 7.4 and supplemented with 2 g/L glucose.
Another example was carried out in P388D1 macrophage-like cells.
Studies by Asmis et al. (92) have shown that, in P388D1 macrophage-like cells, PAF stimulated PGE2 production is mediated through two separate signals: IP3 induced [Ca^2+ ]i increase and another unidentified signal. IP3 -CPM might serve as a new tool for detailed study of PGE2 formation and AA release in relation to IP3 and [Ca^2+ ]i in these cells. One of the major advantages of using permeant IP3 derivatives is that experiments can be easily carried out in a population of cells, which is required for the measurement of AA release and PGE2 formation.

[3] = tested on: 1321N1 astrocytoma cells; assay: as above; assay type: cell-based; details: with extracellular Ca2+, carbachol 200 μM, thapsigargin 100 nM, ionomycin 5 μM
[4] = tested on: 1321N1 astrocytoma cells; assay: Cytosolic free Ca2+ imaging, fura-2; assay type: cell-based
Protocol: Biological tests on 1321N1 astrocytoma cells were performed similarly to the tests on REF-52 cells (71). The concentration of Cytosolic free Ca^2+ (ordinate, in units of μM) in fura-2-loaded 1321N1 astrocytoma cells is shown as a function of time (abscissa, in units of seconds). At the dotted vertical line labeled 1, 20 μM inositol-1,4,5-triphosphate propionyloxymethyl ester (5a, R=Et, R'=H) was added. […] Subsequently the cells could respond to carbachol (200 μM, delivered at the dotted vertical line labeled 2), a drug that stimulates the endogenous generation of inositol-1,4,5-triphosphate. However, the response to carbachol is depressed by the prior treatment with the inositol-1,4,5-triphosphate propionyloxymethyl ester. Likewise the Ca^2+ response to thapsigargin (100 nM, delivered at the dotted vertical line labeled 3), another drug that releases stored Ca^2+, is depressed.
A test similar to the one shown in FIG. 7 was conducted except that the medium lacked extracellular Ca^2+ and a dose of 60 μM inositol-1,4,5-triphosphate propionyloxymethyl ester was added at the dotted vertical line labeled 1. […] Because no extracellular Ca^2+ was present, this response must have represented release from intracellular Ca^2+ stores. […] The much greater degree of inhibition of the carbachol response compared to the previous example (FIG. 7) is due to the higher dose of the inositol-1,4,5-triphosphate propionyloxymethyl ester and the absence of extracellular Ca^2+, which reduces refilling of Ca^2+ stores.
In a further example, the same test as set forth above was conducted with astrocytoma cells, except that 2 μM inositol-1,4,5-triphosphate butyryloxymethyl ester (5a, R=Pr, R'=H) was used instead of the propionyloxymethyl ester.

[5] = molecular target: T1, IP3 receptor (IP3 R) (Bos taurus, UniProt Q9TU34); assay: [3H]IP3 binding assay, bovine cerebellum microsomal fractions; details: for affinity to IP3 R / binding to cerebellar microsomes (in words): without photolysis
T1 construct: from tissue; host or cells: bovine cerebellum microsomal fractions
T1 sequence (Q9TU34 whole entry): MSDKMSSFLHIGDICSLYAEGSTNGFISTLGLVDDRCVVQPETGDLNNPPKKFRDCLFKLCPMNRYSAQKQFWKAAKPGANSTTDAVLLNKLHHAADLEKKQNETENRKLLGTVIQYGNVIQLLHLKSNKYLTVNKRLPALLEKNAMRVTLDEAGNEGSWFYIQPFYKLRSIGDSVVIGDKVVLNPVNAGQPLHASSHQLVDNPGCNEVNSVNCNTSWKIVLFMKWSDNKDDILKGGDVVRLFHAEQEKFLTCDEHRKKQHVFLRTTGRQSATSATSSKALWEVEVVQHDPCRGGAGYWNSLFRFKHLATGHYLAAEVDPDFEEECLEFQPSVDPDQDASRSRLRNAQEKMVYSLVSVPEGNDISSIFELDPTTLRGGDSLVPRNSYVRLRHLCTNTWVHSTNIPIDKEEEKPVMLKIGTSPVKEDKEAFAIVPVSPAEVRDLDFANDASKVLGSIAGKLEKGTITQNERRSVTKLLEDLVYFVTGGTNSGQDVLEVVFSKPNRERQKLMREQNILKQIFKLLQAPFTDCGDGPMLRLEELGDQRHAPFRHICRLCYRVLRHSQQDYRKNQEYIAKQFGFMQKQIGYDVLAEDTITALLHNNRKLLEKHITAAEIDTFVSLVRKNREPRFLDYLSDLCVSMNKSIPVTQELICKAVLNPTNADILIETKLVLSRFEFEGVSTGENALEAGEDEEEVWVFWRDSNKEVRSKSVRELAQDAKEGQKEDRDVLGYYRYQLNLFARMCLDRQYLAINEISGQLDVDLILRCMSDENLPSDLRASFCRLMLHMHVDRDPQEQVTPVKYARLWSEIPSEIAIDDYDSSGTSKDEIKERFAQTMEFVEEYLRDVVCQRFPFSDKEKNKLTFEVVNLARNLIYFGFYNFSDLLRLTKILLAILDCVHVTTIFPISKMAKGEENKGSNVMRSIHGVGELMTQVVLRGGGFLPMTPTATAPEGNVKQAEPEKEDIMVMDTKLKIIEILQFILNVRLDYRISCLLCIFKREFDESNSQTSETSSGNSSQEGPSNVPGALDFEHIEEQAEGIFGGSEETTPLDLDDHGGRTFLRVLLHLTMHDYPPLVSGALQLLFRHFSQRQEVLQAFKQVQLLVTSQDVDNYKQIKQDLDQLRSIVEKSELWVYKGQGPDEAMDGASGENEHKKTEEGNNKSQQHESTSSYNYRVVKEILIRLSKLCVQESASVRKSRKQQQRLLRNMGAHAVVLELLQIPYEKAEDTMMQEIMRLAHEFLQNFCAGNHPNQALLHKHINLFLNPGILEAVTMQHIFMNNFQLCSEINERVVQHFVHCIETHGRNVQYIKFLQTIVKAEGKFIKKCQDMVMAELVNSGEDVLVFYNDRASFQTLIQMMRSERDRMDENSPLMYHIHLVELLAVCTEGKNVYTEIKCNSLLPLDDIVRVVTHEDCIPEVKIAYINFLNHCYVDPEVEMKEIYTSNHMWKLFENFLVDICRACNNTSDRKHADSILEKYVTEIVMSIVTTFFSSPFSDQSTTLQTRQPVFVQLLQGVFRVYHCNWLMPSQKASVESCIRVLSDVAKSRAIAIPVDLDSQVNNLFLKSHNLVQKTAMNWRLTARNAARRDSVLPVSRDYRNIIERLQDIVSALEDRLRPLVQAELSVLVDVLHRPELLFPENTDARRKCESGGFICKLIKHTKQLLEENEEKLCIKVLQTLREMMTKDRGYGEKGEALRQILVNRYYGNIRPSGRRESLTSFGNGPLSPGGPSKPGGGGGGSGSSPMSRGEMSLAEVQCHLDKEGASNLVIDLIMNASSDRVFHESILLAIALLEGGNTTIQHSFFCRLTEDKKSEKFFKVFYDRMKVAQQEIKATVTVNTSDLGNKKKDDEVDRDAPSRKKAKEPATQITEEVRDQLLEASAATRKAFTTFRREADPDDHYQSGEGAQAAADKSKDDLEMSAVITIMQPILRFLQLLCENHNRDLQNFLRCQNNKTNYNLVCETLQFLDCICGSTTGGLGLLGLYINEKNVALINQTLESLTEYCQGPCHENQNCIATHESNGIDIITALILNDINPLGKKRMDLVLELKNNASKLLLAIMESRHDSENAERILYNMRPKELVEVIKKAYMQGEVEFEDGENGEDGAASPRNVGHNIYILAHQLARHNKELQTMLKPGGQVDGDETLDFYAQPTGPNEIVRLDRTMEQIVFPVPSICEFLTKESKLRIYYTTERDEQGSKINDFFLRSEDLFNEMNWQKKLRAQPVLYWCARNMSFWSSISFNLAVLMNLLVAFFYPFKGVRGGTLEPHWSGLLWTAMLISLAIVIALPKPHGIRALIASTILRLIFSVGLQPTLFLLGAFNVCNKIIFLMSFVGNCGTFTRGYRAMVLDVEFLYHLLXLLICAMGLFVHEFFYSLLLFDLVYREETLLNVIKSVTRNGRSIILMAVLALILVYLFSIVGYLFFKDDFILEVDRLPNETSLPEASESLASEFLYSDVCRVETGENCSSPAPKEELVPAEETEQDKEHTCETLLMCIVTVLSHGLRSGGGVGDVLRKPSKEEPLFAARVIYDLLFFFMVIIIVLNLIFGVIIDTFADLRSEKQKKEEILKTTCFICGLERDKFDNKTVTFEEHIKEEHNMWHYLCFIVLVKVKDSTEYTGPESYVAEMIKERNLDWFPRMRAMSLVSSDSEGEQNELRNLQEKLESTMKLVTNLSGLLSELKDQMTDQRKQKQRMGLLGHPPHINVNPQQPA
Protocol: Bovine cerebellum microsomal fractions, which are a rich source of IP3 binding protein, were prepared and used for [^3 H]IP3 binding assay. […] The IC50 of D-IP3 was about 8 nM.
At this point, the crude photolysis product from 100 pmol V-16 was equivalent in binding activity to 32 pmol of authentic IP3. […] The absolute stereochemistry of V-3 and its diastereomer was thus assigned.

[6] = tested on: phosphatase; assay: Intracellular retention and metabolic (phosphatase) stability; assay type: in vitro ADME
Protocol: In human embryonic kidney cells (HEK cells), the extracellular IP3 -CPM was washed away after the cells had been loaded with 50 μM of IP3 -CPM for 20 minutes. […] Cells in the same dish which had not been exposed to UV light were kept in the dark for over 6 hours. […] However, pretreatment of IP3 -CPM with acetic acid will unmask the 3-hydroxyl and enable the intracellular phosphorylation of delivered IP3.

[7] = tested on: intestinal cell line T84; assay: cells; assay type: cell-based; details: 0.2 h; T84, ISC 12 min after addition; read-out: EC50 (chloride secretion)
From the text: A convenient test system is the intestinal cell line T84, in which chloride secretion can be continuously monitored by mounting confluent monolayers of cells in Ussing chambers (42).

[8] = tested on: REF-52 fibroblasts; assay: Cytosolic free Ca2+ imaging, fura-2; assay type: cell-based
Protocol: The best-established biological effect of IP3 is to release Ca^2+ from internal stores (26), so IP3 /PM (5a, R=Et, R'=H) was tested by imaging cytosolic free Ca^2+ levels in single REF-52 fibroblasts using standard methodology (58). Cells were loaded with the Ca^2+ -indicator fura-2 and viewed by fluorescence excitation ratioing. IP3 /PM (40 μM) was applied extracellularly while monitoring cytosolic Ca^2+ concentrations.

[9] = 20 μM compound, with extracellular Ca2+

SMILES: C[C@H](CCC(=O)O)C[C@H](C)C[C@H](C)C(=O)/C=C(\O)[C@H](C)C[C@H](C)C/C=C/[C@@H](C)[C@@H](O)[C@@H](C)[C@@H](O)C[C@@H]1CC[C@@](C)([C@H]2CC[C@@](C)([C@@H](C)O)O2)O1 [Ionomycin, reference compound]
[Ca2+]i response after uncaging of IP3-CPM [1]: small and transient [Ca^2+ ]i increase; also recorded: additional small [Ca^2+ ]i increase
[Ca2+]i response after uncaging of IP3-CPM [2]: huge [Ca^2+ ]i increase
[Ca2+]i response after recovery from uncaging of IP3-CPM [3]: further raised [Ca^2+ ]i to a saturating level; also recorded: huge [Ca^2+ ]i increase

SMILES: CCCC(=O)OCOP(=O)(OCOC(=O)CCC)O[C@@H]1[C@H](O)[C@H](O)[C@@H](OP(=O)(OCOC(=O)CCC)OCOC(=O)CCC)[C@H](OP(=O)(OCOC(=O)CCC)OCOC(=O)CCC)[C@H]1O [IP3 /BM, D-myo-inositol-1,4,5-triphosphate butyryloxymethyl ester]
Ca2+ elevation, potency compared with propionyloxymethyl ester ([4]; 2 μM, with extracellular Ca2+): somewhat more potent
time course compared with propionyloxymethyl ester ([4]; 2 μM, with extracellular Ca2+): slower to appear and decay

affinity for IP3 receptor, fold weaker than IP3 ([5]; assuming 100% chemical yield of uncaged product): 3 fold
affinity to IP3 R relative to IP3 ([5]; photolysis product): at least one third
SMILES: COC1O[C@@H]2[C@@H](OP(=O)(O)O)[C@H](OP(=O)(O)O)[C@@H](O)[C@H](OP(=O)(O)O)[C@@H]2O1 (stereo partly drawn) [D-2,3-methoxymethylene-myo-inositol 1,4,5-trisphosphate]
internal Ca2+ release upon photolysis (in words) ([1]; photolysis product of V-16 in cells): induced internal Ca^2+ release
phosphorylation into 1,3,4,5-IP4 (in words) [6]: can not be phosphorylated into 1,3,4,5-IP4

SMILES: COc1cc(CO[C@@H]2[C@@H](OP(=O)(OCOC(C)=O)OCOC(C)=O)[C@H](OP(=O)(OCOC(C)=O)OCOC(C)=O)[C@H]3OC(OC)O[C@H]3[C@H]2OP(=O)(OCOC(C)=O)OCOC(C)=O)c([N+](=O)[O-])cc1OC (stereo partly drawn) [IP3 -CAM, D-2,3-O-methoxymethylene-6-O-(4,5-dimethoxy-2-nitrobenzyl)-myo-inositol 1,4,5-trisphosphate hexakis(acetoxymethyl)ester]
incubation time required ([1]; astrocytes, response similar to IP3-CPM): more than 15 minutes

EC50 [7]: 100 µM
SMILES: Nc1ncnc2c1nc(Sc1ccc(Cl)cc1)n2[C@@H]1O[C@@H]2COP(=O)(O)O[C@H]2[C@H]1O [Compound 8-pCPT-cAMP, 8-para-chlorophenylthio (cCPT) cAMP, reference compound]

SMILES: C/C=C(/C)C(=O)O[C@H]1C(C)=C2[C@H]([C@@H]1OC(=O)CCCCCCC)[C@@](C)(OC(C)=O)C[C@H](OC(=O)CCC)[C@@]1(O)[C@H]2OC(=O)[C@@]1(C)O [thapsigargin]
[Ca2+]i response after uncaging of IP3-CPM [1]: able to cause further Ca^2+ release
[Ca2+]i response after recovery from uncaging of IP3-CPM [3]: normally; also recorded: normal response

SMILES: CCCCCCCCCCCCCCCCOC[C@H](COP(=O)([O-])OCC[N+](C)(C)C)OC(C)=O [PAF, reference compound]
[Ca2+]i response after uncaging of IP3-CPM [2]: smaller [Ca^2+ ]i increase; also recorded: attenuated response

IC50 ([5]; cerebellar microsomes, read-out: IC50, inhibition of [3H]IP3 binding): ~0.008 µM
SMILES: O=P(O)(O)O[C@@H]1[C@H](O)[C@H](O)[C@@H](OP(=O)(O)O)[C@H](OP(=O)(O)O)[C@H]1O [D-IP3, myo-inositol 1,4,5-triphosphate, reference compound]

SMILES: CCC(=O)OCOP(=O)(OCOC(=O)CC)O[C@@H]1[C@H](O)[C@H](O)[C@@H](OP(=O)(OCOC(=O)CC)OCOC(=O)CC)[C@H](OP(=O)(OCOC(=O)CC)OCOC(=O)CC)[C@H]1O [IP3 /PM, D-myo-inositol-1,4,5-triphosphate propionyloxymethyl ester]
effect of subsequent vasopressin after compound ([8]; REF-52, 40 μM compound): much less effect than normal
cytosolic Ca2+ concentration ([8]; REF-52, 40 μM extracellular): increased rapidly
Ca2+ release from internal stores (in words) ([8]; intact REF-52 fibroblasts and astrocytoma cells): released Ca^2+ from internal stores
response to subsequent carbachol (200 μM) [4, 9]: depressed
response to subsequent thapsigargin (100 nM) [4, 9]: depressed
delay of Ca2+ elevation ([4]; 20 μM, with extracellular Ca2+): about 100 second
elevation of cytosolic Ca2+ ([4]; 20 μM, with extracellular Ca2+): sizable elevation of cytosolic Ca^2+
response to subsequent carbachol (200 μM) ([4]; 60 μM compound, no extracellular Ca2+): greatly depressed
delay of Ca2+ elevation ([4]; 60 μM, no extracellular Ca2+): ~50 s
elevation of cytosolic Ca2+ ([4]; 60 μM, no extracellular Ca2+): sizable elevation of cytosolic Ca^2+

affinity to IP3 R / binding to cerebellar microsomes (in words) [5]: negligible affinity
SMILES: O=P(O)(O)O[C@@H]1[C@@H](O)[C@H](OP(=O)(O)O)[C@@H](OP(=O)(O)O)[C@H](O)[C@@H]1O [L-IP3, reference compound]

amount of authentic IP3 equivalent in binding activity to crude photolysis product from 100 pmol V-16 ([5]; after about 2 h photolysis): 32 pmol
binding to the receptor upon photolysis ([5]; photolysis at 366 nm): UV-dose-dependent increase of binding
time at which binding leveled off on photolysis ([5]; photolysis at 366 nm): about 2 hours
affinity to IP3 R / binding to cerebellar microsomes (in words) [5]: negligible binding
SMILES: COc1cc(CO[C@@H]2[C@@H](OP(=O)(O)O)[C@H](OP(=O)(O)O)[C@H]3OC(OC)O[C@H]3[C@H]2OP(=O)(O)O)c([N+](=O)[O-])cc1OC (stereo partly drawn) [Compound V-16, D-2,3-O-methoxymethylene-6-O-(4,5-dimethoxy-2-nitrobenzyl)-myo-inositol 1,4,5-trisphosphate]
releasing Ca2+ without photolysis ([1]; caged IP3 analog released inside cells): inactive in releasing Ca^2+
phosphatase degradation / metabolic stability (in words) ([6]; in cells): metabolically fairly stable; also recorded: fairly resistant to phosphatase degradation
retention in cells (in words) ([6]; in cells): well retained in cells; also recorded: could be trapped inside cells for a long period of time without losing much of its activity

SMILES: C[N+](C)(C)CCOC(N)=O [Carbachol]
[Ca2+]i response after uncaging of IP3-CPM [1]: able to cause further Ca^2+ release
[Ca2+]i response after recovery from uncaging of IP3-CPM [3]: normal response
[Ca2+]i response after recovery from uncaging of IP3-CPM ([3]; listed as carbachol): normally

Source: patent publication US5866548A, “Caged membrane-permeant inositol phosphates” (priority 1996, dated 1999)
